# Assay results published in patent US20210363152A1, “AMINOAZINE AMIDES” (Hoffmann-La Roche Inc., priority 2018, published 2021).
# Molecular target: T1, Autotaxin enzyme (ATX) (Homo sapiens, UniProt Q13822)
# T1 construct: purchased Echelon Biosciences, Inc. E-4000
# Assay: In vitro ATX assay (enzymatic ATX inhibition, LPC 14:0 substrate, choline oxidase/HRP absorbance readout)
# Assay type: biochemical
# Details: 0.3 mM LPC 14:0, 37° C., 4 hours, absorbance 555 nm
# Procedure: • Assay buffer: 100 mM Tris-HCl, pH 9.0, 500 mM NaCl, 5 mM MgCl2, 30 μM CoCl2, 0.05% Triton X-100 • Assay buffer II: 4.5 mM 4-AAP, 2.7 mM TOOS, 21.2 U/mL HRP, 3 U/mL CO, In 50 mM Tris-HCl pH 8.0, 4.5 mM MgCl2
# A compound preparation plate (Nunc 249944) was prepared by adding 30 mM stock solution (in DMSO) of test compound and performing a serial full-log dilution down to 30 nM. Two μL/well were transferred from the first compound prep plate to a compound dilution plate (Corning, 3641) and 198 μL assay buffer I was added for a […].
# A 10 ng/mL solution of ATX was prepared by diluting in assay buffer I, and 80 μL/well were added to the assay plate (Corning, 3641); negative control wells contained 80 μL/well assay buffer I only (no ATX). Ten μL/well from the compound dilution plate (containing serially diluted test compound or DMSO) were added to the assay plate, which was then incubated at 37° C. for 15 minutes. A solution of LPC 14:0 was prepared in assay buffer I at 3 mM and 10 μl/well were added to the assay plate, for a final concentration of 0.3 mM LPC, and returned to 37° C. incubator for 4 hours. After 4 hour incubation, 100 μL/well of assay buffer II was added to all wells of the assay plate. The plate was incubated at RT for 15 minutes, prior to reading on FlexStation in absorbance mode, 555 nm. Results in the enzymatic ATX inhibition assay are provided for compounds of formula (I). An IC50 value of “A” is less than 100 nM, “B” is equal to or greater than 100 nM but less than 1 μM, “C” is equal to or greater than 1 μM.
row,Structure (SMILES),IC50 [nM]
1,CC(C)Oc1cc(CNc2ncc(C(=O)N3CCC34COC4)cn2)cc(OC(C)C)c1 [Example 52],< 100
2,CCOc1cc(CNc2ncc(C(=O)N3CCC34COC4)cn2)cc(OCC)c1 [Example 53],< 100
3,O=C(c1cnc(NCc2cc(Cl)ccc2Cl)nc1)N1CCC12COC2 [Example 54],100 to 1000
4,O=C(c1cnc(NCc2cccc(Cl)c2Cl)nc1)N1CCC12COC2 [Example 55],100 to 1000
5,O=C(c1cnc(NC2Cc3ccc(Cl)cc3C2)nc1)N1CCC1 (stereo not drawn) [Example 56],< 100
6,COC[C@@H]1CCN1C(=O)c1cnc(NC2Cc3ccc(Cl)cc3C2)nc1 (stereo partly drawn) [Example 57],< 100
7,CC(C)Oc1cc(CNc2ncc(C(=O)N3CCC3C(C)(C)O)cn2)cc(OC(C)C)c1 (stereo not drawn) [Example 58],< 100
8,CC(C)Oc1cc(CNc2ncc(C(=O)N3CCC3C(C)(C)O)cn2)cc(C2CC2)c1 (stereo not drawn) [Example 59],< 100
9,CC(C)(O)C1CCN1C(=O)c1cnc(NC2Cc3ccc(Cl)cc3C2)nc1 (stereo not drawn) [Example 60],< 100
10,O=C(c1cnc(N[C@H]2Cc3ccc(Br)cc3C2)nc1)N1CCC12COC2 [Example 61],100 to 1000
11,O=C(c1cnc(N[C@@H]2Cc3ccc(Br)cc3C2)nc1)N1CCC12COC2 [Example 62],< 100
12,CC(C)Oc1cc(CNc2ncc(C(=O)N3CCC34COC4)cn2)cc(N2CCC2)c1 [Example 63],100 to 1000
13,CC(C)c1cc(CNc2ncc(C(=O)N3CCC3C(C)(C)O)cn2)cc(OC(F)(F)F)c1 (stereo not drawn) [Example 64],< 100
14,CC(C)(O)C1CCN1C(=O)c1cnc(NCc2cc(C3CC3)cc(C3CC3)c2)nc1 (stereo not drawn) [Example 65],< 100
15,CCOc1cc(CNc2ncc(C(=O)N3CCC3C(C)(C)O)cn2)cc(OC(F)(F)F)c1 (stereo not drawn) [Example 66],< 100
16,CCOc1cc(CNc2ncc(C(=O)N3CCC34COC4)cn2)cc(C2CC2)c1 [Example 67],< 100
17,CC(C)(O)C1CCN1C(=O)c1cnc(NCc2cc(OC(F)(F)F)cc(N3CCC3)c2)nc1 (stereo not drawn) [Example 68],< 100
18,"O=C(c1cnc(NCc2cccc(OC(F)(F)F)c2)cn1)N1CCC12COC2 [Example 71, 6-Oxa-1-azaspiro[3.3]heptan-1-yl(5-((3-(trifluoromethoxy)benzyl)|amino)pyrazin-2-yl)methanone]",100 to 1000
19,"O=C(c1ccc(NCc2cccc(OC(F)(F)F)c2)nn1)N1CCC12COC2 [Example 72, 6-Oxa-1-azaspiro[3.3]heptan-1-yl(6-((3-(trifluoromethoxy)benzyl)amino)pyridazin-3-yl)methanone]",≥ 1000
20,"O=C(c1ccc(NCc2cccc(OC(F)(F)F)c2)nc1)N1CCC12COC2 [Example 73, 6-Oxa-1-azaspiro[3.3]heptan-1-yl(6-((3-(trifluoromethoxy)benzyl)amino)pyridin-3-yl)methanone]",≥ 1000
21,"CC(C)c1cc(CNc2cnc(C(=O)N3CCC3)cn2)cc(OC(F)(F)F)c1 [Example 74, Azetidin-1-yl(5-((3-isopropyl-5-(trifluoromethoxy)benzyl)amino)pyrazin-2-yl)methanone]",100 to 1000
22,"CC(C)c1cc(CNc2cnc(C(=O)N3CCC34COC4)cn2)cc(OC(F)(F)F)c1 [Example 75, (5-((3-Isopropyl-5-(trifluoromethoxy)benzyl)amino)pyrazin-2-yl)(6-oxa-1-azaspiro[3.3]heptan-1-yl)methanone]",< 100
23,"CC(C)c1cc(CNc2ccc(C(=O)N3CCC34COC4)cn2)cc(OC(F)(F)F)c1 [Example 76, (6-((3-Isopropyl-5-(trifluoromethoxy)benzyl)amino)pyridin-3-yl)(6-oxa-1-azaspiro[3.3]heptan-1-yl)methanone]",< 100
24,"O=C(c1ccc(NCc2cc(OC(F)(F)F)cc(C3CC3)c2)nc1)N1CCC12COC2 [Example 77, (6-((3-Cyclopropyl-5-(trifluoromethoxy)benzyl)amino)pyridin-3-yl)(6-oxa-1-azaspiro[3.3]heptan-1-yl)methanone]",< 100
